Results from ChEMBL document CHEMBL3286313 (J Med Chem, 2014).
“And” between values parts separate entries of the source, which are not always exact repeats. Identical values can stand only once. The source made the active and inactive calls. The rule behind the calls is not given here.

Key:
D(2) dopamine receptor [1] = target: T1, D(2) dopamine receptor (Homo sapiens, UniProt P14416); test: biochemical; assay type: cell-based, CHO
D(2) dopamine receptor [2] = target: T1, D(2) dopamine receptor; test: biochemical; assay type: cell-based, CHO; remark: listed apart in the source
D(4) dopamine receptor = target: T2, D(4) dopamine receptor (Homo sapiens, UniProt P21917); test: biochemical; assay type: cell-based, CHO
T2 sequence (P21917 whole entry): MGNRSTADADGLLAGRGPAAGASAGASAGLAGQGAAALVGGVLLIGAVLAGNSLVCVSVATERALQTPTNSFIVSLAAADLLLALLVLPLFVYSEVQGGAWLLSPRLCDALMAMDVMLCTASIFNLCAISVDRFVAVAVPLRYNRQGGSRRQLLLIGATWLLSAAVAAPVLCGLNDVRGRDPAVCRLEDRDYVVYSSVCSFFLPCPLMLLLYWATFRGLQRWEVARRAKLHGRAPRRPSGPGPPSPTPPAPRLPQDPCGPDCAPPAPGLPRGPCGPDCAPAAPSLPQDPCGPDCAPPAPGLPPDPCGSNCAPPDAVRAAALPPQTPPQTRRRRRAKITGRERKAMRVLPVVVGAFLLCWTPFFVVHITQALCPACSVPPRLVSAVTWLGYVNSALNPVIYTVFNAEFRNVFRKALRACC

D(3) dopamine receptor [3] = target: T3, D(3) dopamine receptor (Homo sapiens, UniProt P35462); test: biochemical; assay type: cell-based, CHO
T3 sequence (P35462 whole entry): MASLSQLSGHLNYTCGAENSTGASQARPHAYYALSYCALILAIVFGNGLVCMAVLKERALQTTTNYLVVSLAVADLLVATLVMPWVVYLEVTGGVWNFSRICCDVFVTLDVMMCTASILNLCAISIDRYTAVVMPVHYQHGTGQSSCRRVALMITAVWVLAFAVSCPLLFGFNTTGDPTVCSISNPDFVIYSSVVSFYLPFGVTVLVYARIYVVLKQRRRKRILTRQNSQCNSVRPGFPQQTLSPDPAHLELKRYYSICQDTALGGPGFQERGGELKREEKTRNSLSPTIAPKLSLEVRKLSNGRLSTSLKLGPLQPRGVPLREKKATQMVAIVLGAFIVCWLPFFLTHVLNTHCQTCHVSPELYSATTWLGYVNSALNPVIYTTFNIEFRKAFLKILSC

D(3) dopamine receptor [4] = target: T3, D(3) dopamine receptor; assay type: functional, cell-based, HEK293
[5] = target: 5-hydroxytryptamine receptor 2A (Homo sapiens, UniProt P28223); test: biochemical; assay type: cell-based, HEK293
Sequence of 5-hydroxytryptamine receptor 2A (P28223 whole entry): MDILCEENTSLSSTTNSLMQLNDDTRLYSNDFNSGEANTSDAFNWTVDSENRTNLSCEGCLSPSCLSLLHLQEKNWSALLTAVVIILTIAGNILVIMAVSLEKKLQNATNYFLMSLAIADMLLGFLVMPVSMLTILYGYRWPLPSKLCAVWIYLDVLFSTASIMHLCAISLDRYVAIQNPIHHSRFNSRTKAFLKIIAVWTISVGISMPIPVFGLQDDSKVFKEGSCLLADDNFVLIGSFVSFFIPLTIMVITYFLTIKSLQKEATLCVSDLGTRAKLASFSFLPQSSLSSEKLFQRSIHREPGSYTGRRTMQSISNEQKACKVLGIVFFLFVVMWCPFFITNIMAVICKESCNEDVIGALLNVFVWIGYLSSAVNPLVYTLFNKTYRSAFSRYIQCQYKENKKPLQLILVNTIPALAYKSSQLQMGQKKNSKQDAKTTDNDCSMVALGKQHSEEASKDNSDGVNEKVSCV

D(2) dopamine receptor [6] = target: T1, D(2) dopamine receptor
D(1A) dopamine receptor = D(1A) dopamine receptor (Homo sapiens, UniProt P21728); test: biochemical; assay type: cell-based, HEK293
Sequence of D(1A) dopamine receptor (P21728 whole entry): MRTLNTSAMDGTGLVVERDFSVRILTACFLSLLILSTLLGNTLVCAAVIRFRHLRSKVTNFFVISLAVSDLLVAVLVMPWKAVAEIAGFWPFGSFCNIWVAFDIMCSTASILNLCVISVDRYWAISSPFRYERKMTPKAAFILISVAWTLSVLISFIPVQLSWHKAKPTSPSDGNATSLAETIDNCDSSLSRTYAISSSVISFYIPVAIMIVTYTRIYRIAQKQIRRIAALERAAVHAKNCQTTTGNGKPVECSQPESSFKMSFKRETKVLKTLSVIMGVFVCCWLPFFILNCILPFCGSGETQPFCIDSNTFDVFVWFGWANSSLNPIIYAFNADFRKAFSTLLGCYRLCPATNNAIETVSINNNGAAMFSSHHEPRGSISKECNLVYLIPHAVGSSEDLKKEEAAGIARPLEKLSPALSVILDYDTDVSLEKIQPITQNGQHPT

D(2) dopamine receptor [7] = target: T1, D(2) dopamine receptor; remark: listed apart in the source
Mus musculus = test: CNS activity in C57Bl/6J mouse assessed as auditory startle response at 3 mg/kg, ip measured after 15 mins; assay type: functional, organism-based; set-up: dose 3 mg/kg

T1 sequence (P14416 whole entry): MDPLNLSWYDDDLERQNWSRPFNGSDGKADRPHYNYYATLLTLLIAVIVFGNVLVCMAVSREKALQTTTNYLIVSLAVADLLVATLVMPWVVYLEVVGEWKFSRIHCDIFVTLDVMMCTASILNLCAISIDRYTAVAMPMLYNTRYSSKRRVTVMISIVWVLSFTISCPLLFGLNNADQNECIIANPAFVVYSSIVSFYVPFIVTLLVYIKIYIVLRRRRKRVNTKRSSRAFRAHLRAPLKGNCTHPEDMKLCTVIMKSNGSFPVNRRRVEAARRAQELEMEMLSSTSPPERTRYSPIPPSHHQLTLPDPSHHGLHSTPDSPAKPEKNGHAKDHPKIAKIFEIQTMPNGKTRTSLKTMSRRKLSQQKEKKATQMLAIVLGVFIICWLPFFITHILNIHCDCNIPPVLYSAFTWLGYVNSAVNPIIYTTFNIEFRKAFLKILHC

## O=Cc1c(OCCCCN2CCN(c3cccc(Cl)c3Cl)CC2)nn2ccccc12
D(2) dopamine receptor [1]
  Ki: 14 nM
D(2) dopamine receptor [2]
  Ki: 10 nM
D(4) dopamine receptor
  Ki: 29 nM
D(3) dopamine receptor [3]
  Ki: 5.9 nM

## OCc1cc2cc(OCCCCN3CCN(c4cccc(Cl)c4Cl)CC3)ccn2n1
D(2) dopamine receptor [1]
  Ki: 2.3 nM
D(2) dopamine receptor [2]
  Ki: 3.1 nM
D(3) dopamine receptor [4]
  EC50: 5.9 nM
[5]
  Ki: 16 nM
D(2) dopamine receptor [6]
  EC50: 540 nM
D(4) dopamine receptor
  Ki: 35 nM
D(1A) dopamine receptor
  Ki: 240 nM
D(3) dopamine receptor [3]
  Ki: 1.3 nM

## O=Cc1cnn2cccc(OCCCCN3CCN(c4cccc(Cl)c4Cl)CC3)c12
D(2) dopamine receptor [1]
  Ki: 24 nM
D(2) dopamine receptor [2]
  Ki: 29 nM
D(4) dopamine receptor
  Ki: 41 nM
D(3) dopamine receptor [3]
  Ki: 20 nM

## Clc1cccc(N2CCN(CCCCOc3ccn4nccc4c3)CC2)c1Cl
D(2) dopamine receptor [1]
  Ki: 39 nM
D(2) dopamine receptor [2]
  Ki: 34 nM
D(3) dopamine receptor [4]
  EC50: 66 nM
D(2) dopamine receptor [6]
  EC50: 180 nM
D(4) dopamine receptor
  Ki: 130 nM
D(3) dopamine receptor [3]
  Ki: 7 nM

## O/N=C/c1cnn2ccc(OCCCCN3CCN(c4cccc(Cl)c4Cl)CC3)cc12 (stereo in doubt; 8a)
D(2) dopamine receptor [1]
  Ki: 1.7 nM
D(2) dopamine receptor [2]
  Ki: 1.8 nM
D(3) dopamine receptor [4]
  EC50: 42 nM
[5]
  Ki: 7.7 nM
D(2) dopamine receptor [6]
  EC50: 270 nM
D(4) dopamine receptor
  Ki: 5.3 nM
D(1A) dopamine receptor
  Ki: 4300 nM
D(3) dopamine receptor [3]
  Ki: 2.3 nM

## CCOC(=O)c1cc2cc(OCCCCN3CCN(c4cccc(Cl)c4Cl)CC3)ccn2n1
D(2) dopamine receptor [1]
  Ki: 6.7 nM
D(2) dopamine receptor [2]
  Ki: 7.4 nM
D(3) dopamine receptor [4]
  EC50: 57 nM
[5]
  Ki: 22 nM
D(2) dopamine receptor [6]
  EC50: 440 nM
D(4) dopamine receptor
  Ki: 47 nM
D(1A) dopamine receptor
  Ki: 150 nM
D(3) dopamine receptor [3]
  Ki: 2.1 nM

## Clc1cccc(N2CCN(CCCCOc3ccc4ccnn4c3)CC2)c1Cl
D(2) dopamine receptor [1]
  Ki: 2.1 nM
D(2) dopamine receptor [2]
  Ki: 4.2 nM
D(3) dopamine receptor [4]
  EC50: 41 nM
D(2) dopamine receptor [6]
  EC50: 1300 nM
D(4) dopamine receptor
  Ki: 4.4 nM
D(3) dopamine receptor [3]
  Ki: 2.3 nM

## O=Cc1cnn2ccc(OCCCCN3CCN(c4cccc(Cl)c4Cl)CC3)cc12
D(2) dopamine receptor [1]
  Ki: 3.2 nM
D(2) dopamine receptor [2]
  Ki: 4.6 nM
D(3) dopamine receptor [4]
  EC50: 1.9 nM
[5]
  Ki: 240 nM
D(2) dopamine receptor [6]
  EC50: 650 nM
D(2) dopamine receptor [7]
  IC50: 360 nM
D(4) dopamine receptor
  Ki: 57 nM
Mus musculus
  Activity: Active
D(1A) dopamine receptor
  Ki: 970 nM
D(3) dopamine receptor [3]
  Ki: 6.9 nM

## Clc1cccc(N2CCN(CCCCOc3cccn4nccc34)CC2)c1Cl
D(2) dopamine receptor [1]
  Ki: 30 nM
D(2) dopamine receptor [2]
  Ki: 25 nM
D(4) dopamine receptor
  Ki: 16 nM
D(3) dopamine receptor [3]
  Ki: 10 nM

## O=Cc1cnn2c(OCCCCN3CCN(c4cccc(Cl)c4Cl)CC3)cccc12
D(2) dopamine receptor [1]
  Ki: 15 nM
D(2) dopamine receptor [2]
  Ki: 51 nM
D(4) dopamine receptor
  Ki: 78 nM
D(3) dopamine receptor [3]
  Ki: 6.4 nM

## O/N=C/c1cnn2ccc(OCCCCN3CCN(c4cccc(Cl)c4Cl)CC3)cc12 (stereo in doubt; 8b)
D(2) dopamine receptor [1]
  Ki: 0.25 nM
D(2) dopamine receptor [2]
  Ki: 0.17 nM
D(3) dopamine receptor [4]
  EC50: 39 nM
[5]
  Ki: 4 nM
D(2) dopamine receptor [6]
  EC50: 240 nM
D(2) dopamine receptor [7]
  IC50: 3.8 nM
D(4) dopamine receptor
  Ki: 6 nM
D(1A) dopamine receptor
  Ki: 670 nM
D(3) dopamine receptor [3]
  Ki: 0.69 nM

## N#Cc1cnn2ccc(OCCCCN3CCN(c4cccc(Cl)c4Cl)CC3)cc12
D(2) dopamine receptor [1]
  Ki: 0.32 nM
D(2) dopamine receptor [2]
  Ki: 0.58 nM
D(3) dopamine receptor [4]
  EC50: 12 nM
[5]
  Ki: 490 nM
D(2) dopamine receptor [6]
  EC50: 110 nM
D(4) dopamine receptor
  Ki: 5.7 nM
D(1A) dopamine receptor
  Ki: 930 nM
D(3) dopamine receptor [3]
  Ki: 1.5 nM

## Clc1cccc(N2CCN(CCCCOc3cccc4ccnn34)CC2)c1Cl
D(2) dopamine receptor [1]
  Ki: 16 nM
D(2) dopamine receptor [2]
  Ki: 64 nM
D(4) dopamine receptor
  Ki: 16 nM
D(3) dopamine receptor [3]
  Ki: 7.2 nM

## O=Cc1cnn2cc(OCCCCN3CCN(c4cccc(Cl)c4Cl)CC3)ccc12
D(2) dopamine receptor [1]
  Ki: 8.1 nM
D(2) dopamine receptor [2]
  Ki: 6.2 nM
D(3) dopamine receptor [4]
  EC50: 110 nM
D(2) dopamine receptor [6]
  EC50: 340 nM
D(4) dopamine receptor
  Ki: 18 nM
D(3) dopamine receptor [3]
  Ki: 2 nM

## N#Cc1cc2cc(OCCCCN3CCN(c4cccc(Cl)c4Cl)CC3)ccn2n1
D(2) dopamine receptor [1]
  Ki: 6.7 nM
D(2) dopamine receptor [2]
  Ki: 8.9 nM
D(3) dopamine receptor [4]
  EC50: 41 nM
[5]
  Ki: 81 nM
D(2) dopamine receptor [6]
  EC50: 98 nM
D(4) dopamine receptor
  Ki: 9.3 nM
D(1A) dopamine receptor
  Ki: 3500 nM
D(3) dopamine receptor [3]
  Ki: 1.9 nM

## O=Cc1cc2cc(OCCCCN3CCN(c4cccc(Cl)c4Cl)CC3)ccn2n1
D(2) dopamine receptor [1]
  Ki: 14 nM
D(2) dopamine receptor [2]
  Ki: 14 nM
D(3) dopamine receptor [4]
  EC50: 5 nM
[5]
  Ki: 56 nM
D(2) dopamine receptor [7]
  IC50: 28.8 nM and 22 nM
D(4) dopamine receptor
  Ki: 89 nM
D(1A) dopamine receptor
  Ki: 180 nM
D(3) dopamine receptor [3]
  Ki: 6 nM

## O/N=C/c1cc2cc(OCCCCN3CCN(c4cccc(Cl)c4Cl)CC3)ccn2n1
D(2) dopamine receptor [1]
  Ki: 2.3 nM
D(2) dopamine receptor [2]
  Ki: 3.3 nM
D(3) dopamine receptor [4]
  EC50: 15 nM
[5]
  Ki: 7.9 nM
D(4) dopamine receptor
  Ki: 24 nM
D(1A) dopamine receptor
  Ki: 260 nM
D(3) dopamine receptor [3]
  Ki: 0.86 nM
